Experimental data from PubChem BioAssay (NCI).
Values joined by “and” are separate entries in the source; they are usually repeats but may differ in a detail not shown here. Identical values can stand only once.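 Cells were grown in 96-well plates and exposed to each compound for 48 hours at five concentrations; endpoints were interpolated linearly between bracketing concentrations, or set to the highest concentration if not reached. GI50 marks 50% less growth. TGI denotes the concentration required for complete inhibition of growth.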

What was measured:
Experiment in all cases: NCI tumour cell line growth inhibition, 48 h
BT-549 breast = tested on: BT-549 breast
KM20L2 colon = tested on: KM20L2 colon
SNB-78 CNS = tested on: SNB-78 CNS
HOP-18 NSCLC = tested on: HOP-18 NSCLC
DMS 114 small cell lung = tested on: DMS 114 small cell lung
LXFL 529 NSCLC = tested on: LXFL 529 NSCLC
M19-MEL melanoma = tested on: M19-MEL melanoma
MDA-N = tested on: MDA-N
RXF-631 renal = tested on: RXF-631 renal

| Structure (SMILES) | GI50 (BT-549 breast) [µM] | TGI (BT-549 breast) [µM] | TGI (KM20L2 colon) [µM] | TGI (SNB-78 CNS) [µM] | TGI (HOP-18 NSCLC) [µM] | TGI (DMS 114 small cell lung) | TGI (LXFL 529 NSCLC) [µM] | TGI (M19-MEL melanoma) | also measured |
| --- | --- | --- | --- | --- | --- | --- | --- | --- | --- |
| COc1ccc(C/C(C)=C(/c2ccc(OCCN3CCCCC3)cc2)c2ccc(OC(=O)NCc3ccccc3)cc2)cc1 | 0.379 | 0.763 | – | – | – | – | – | – | – |
| O=C1C=CC(=O)C2=C1[C@@H](O)C1CC=CC3C(=O)O[C@@H]2C31 (stereo partly specified) | – | – | 60.9 | > 62.3 | > 62 | 51.3 µM | 29.3 | > 58.3 µM | – |
| C#CC#CC#CC#CC#CC#CC#CC#CCC1OCC(COC(=O)O[C@@H](C(=O)O[C@H]2C[C@@]3(O)[C@@H](OC(=O)c4ccccc4)[C@@H]4[C@]5(OC(C)=O)CO[C@@H]5C[C@H](O)[C@@]4(C)C(=O)[C@H](OC(C)=O)C(=C2C)C3(C)C)[C@@H](NC(=O)c2ccccc2)c2ccccc2)O1 (stereo partly specified) | 0.586 | > 33.3 | – | – | – | – | – | – | – |
| Cc1cccc(/C=N/NC(=S)N2CCCC2)n1 | 3.02 | > 100 | – | – | – | – | – | – | GI50 (MDA-N): 1.91 µM; TGI (MDA-N): > 26.1 µM |
| C[C@@H]1[C@H](C)N1CC(O)Cn1ccnc1[N+](=O)[O-] (stereo partly specified) | – | – | – | – | – | – | – | – | TGI (MDA-N): > 100 µM |
| COc1cc(C(=O)c2c(-c3ccccc3)oc3c(OC)cccc23)cc(OC)c1OC | 0.154 | 1.5 | – | – | – | – | – | – | – |
| N/N=C(/C(=O)Nc1cccc(Cl)c1)C(C(=O)c1ccc(O)cc1O)C1OC(=O)c2ccccc21 (stereo unspecified) | – | – | > 100 | > 100 | – | > 100 µM | > 100 | > 100 µM | – |
| O=C1c2cc3c(cc2[C@@H]2[C@H]1c1ccc([N+](=O)[O-])cc1C(=O)N2CCCBr)OCO3 | < 0.01 | 0.411 | – | – | – | – | – | – | – |
| CC(CN(C)C)/C(=N\Nc1ccccc1)c1ccccc1 (stereo unspecified) | – | – | 0.333 | 83 | 67.3 | 20.5 µM | – | 14.5 µM | – |
| CSc1nnc(CCC(=O)Nc2c(C)cccc2C)o1 | – | – | > 100 | > 100 | > 100 | > 100 µM | > 100 | > 100 µM | TGI (RXF-631 renal): > 100 µM |
| C=C/C=C/NC(=O)OCc1ccccc1 | – | – | > 100 | > 100 | > 100 | > 100 µM | > 100 | > 100 µM | – |
| COc1cc2c(cc1OC)[C@H](C)N1CCc3cc(OC)c(OC)cc3[C@@H]1C2 | – | > 100 | – | – | – | – | – | – | TGI (MDA-N): > 100 µM |
| O=C1OCC2=C1C(c1cccc(Cl)c1)c1cc3c(cc1N2CCO)OCCO3 (stereo unspecified) | 0.147 | 11.8 | – | – | – | – | – | – | – |
| CC(C)(C)C(=O)OCC1C(=O)OCC1C(=O)N1Cc2cc3ccccc3nc2C1 (stereo unspecified) | – | 8.83 | 15.9 | 4.57 | 6.59 | 17.8 µM | 2.97 | 12.8 µM | TGI (MDA-N): 14.1 µM |
| CC1=C(c2cccc(O)c2)[C@H](c2ccc(OCCN3CC(CF)C3)cc2)Oc2ccc(O)cc21 | 10.5 | 23.2 | – | – | – | – | – | – | – |
| CC(=O)Nc1ccc(S(=O)(=O)N/N=C/CN2C(=O)c3ccccc3C2=O)cc1 | – | – | > 100 | – | – | > 100 µM | > 100 | > 100 µM | – |
| O=[N+]([O-])c1ccc(-n2nnc(C3=NCCN3)c2-c2ccccc2)cc1 | – | – | > 100 | > 100 | > 100 | > 100 µM | > 100 | > 100 µM | – |
| N#C/C(=C\c1ccsc1)c1nc2ccccc2o1 | 48.4 | > 100 | – | – | – | – | – | – | – |
| NC(=O)N/N=C1/CCC(O)CC1CC(=O)O (stereo unspecified) | – | > 100 | – | – | – | – | – | – | TGI (MDA-N): > 100 µM |

| Structure (SMILES) | GI50 (BT-549 breast) [µM] | TGI (BT-549 breast) [µM] | TGI (KM20L2 colon) [µM] | TGI (SNB-78 CNS) [µM] | TGI (HOP-18 NSCLC) [µM] | TGI (DMS 114 small cell lung) | TGI (LXFL 529 NSCLC) [µM] | TGI (M19-MEL melanoma) | also measured |
| --- | --- | --- | --- | --- | --- | --- | --- | --- | --- |
| Cc1cc2c(C(C)C)c(O)c(O)cc2c(O)c1-c1c(C)cc2c(C(C)C)c(O)c(O)cc2c1O | 14.4 | 41.2 | – | – | – | – | – | – | – |
| CC[C@@]1(O)C(=O)OCc2c1cc1n(c2=O)Cc2cc3cc4c(cc3nc2-1)OCO4 | – | – | > 100 | – | 0.609 | 0.0273 µM and 0.0398 µM | 0.375 | 0.262 µM and 0.18 µM | GI50 (KM20L2 colon): 0.0569 µM; GI50 (HOP-18 NSCLC): < 0.001 µM |
| COc1ccc2c(c1)NC1=C(C(=O)OC1)C2c1cc(OC)c2c(c1)OCO2 (stereo unspecified) | 0.046 | > 100 | – | – | – | – | – | – | – |
| O=C(C/C(=N/O)C(=O)NC1=C(Cl)C(=O)c2ccccc2C1=O)CC(c1ccccc1)c1c(O)c2ccccc2oc1=O (stereo unspecified) | – | > 100 | – | – | – | – | – | – | TGI (MDA-N): 3.09 µM |
| C=C1C(O)C2C(=C(CC)C13CC3)C(=O)C(C)(C)C2OC (stereo unspecified) | > 100 | > 100 | – | – | – | – | – | – | – |
| COc1cc(OC)c2nc(C)c3c(c2c1)SCC3 | – | – | – | – | – | – | – | – | TGI (MDA-N): 85 µM |
| Cn1ncnc1[C@H]1c2n[nH]c(=O)c3cc(F)cc(c23)N[C@@H]1c1ccc(F)cc1 | > 87.1 | > 100 | – | – | – | – | – | – | – |
| Cc1ccc(S(=O)(=O)c2c(COC(=O)c3cccc(C)c3)c(-c3ccccc3)nn2C)cc1 | > 100 | > 100 | – | – | – | – | – | – | – |
| C=C1CC2OC(=O)C(=C)C2C(O)C2C(=C)CCC12 (stereo unspecified) | – | – | – | 20.6 | 29.3 | 16.9 µM | 16.7 | 20.1 µM | – |
| OC1(C23CC4CC(CC(C4)C2)C3)CSCC1(O)C12CC3CC(CC(C3)C1)C2 (stereo unspecified) | – | – | – | > 100 | – | > 100 µM | > 100 | > 100 µM | TGI (RXF-631 renal): > 100 µM |
| C/C(O)=C(/C=N/C(=S)Nc1ccc(S(N)(=O)=O)cc1)C(=O)Nc1ccccc1C | – | > 100 | – | – | – | – | – | – | – |
| O=C1C(Nc2ccc(Cl)cc2)=C(I)C(=O)c2ncccc21 | 2 | 4.72 | – | – | – | – | – | – | – |
| O=C1C(c2ccccc2)=C(O)c2cccc3cccc1c23 | – | – | > 100 | > 100 | > 100 | > 100 µM | > 100 | > 100 µM | – |
| COc1c(O)c2c3c(cc(C)cc3c1C(C)C)OC2 | – | – | > 100 | > 100 | > 100 | – | > 100 | > 100 µM | – |
| COc1ccc2c(c1)C(=O)c1ccc(OC)cc1C2=S | – | – | > 100 | > 100 | > 100 | > 100 µM | – | > 100 µM | – |
| CCOC(C[C@H](O[Si](C)(C)C(C)(C)C)[C@H]1COC(=S)S1)OCC | – | – | > 100 | – | – | > 100 µM | > 100 | > 100 µM | – |
| O=C(Nc1cccc(-n2cc(-c3ccncc3)c(-c3ccc(Cl)c(O)c3)n2)c1)Nc1cc(C(F)(F)F)cc(C(F)(F)F)c1 | 1.05 | 2.05 | – | – | – | – | – | – | – |
| COc1cc2c[n+](C)c3c4cc(OC)c(OC(C)C)cc4ccc3c2cc1OC | – | – | > 100 | > 100 | > 100 | 26.7 µM | 76.1 | 48.7 µM | – |
